Assay results as given in patent US7745473B2, “Indole derivative for alkylating specific base sequence of DNA and alkylating agent and drug containing the derivative” (Kyoto University, priority 2004, dated 2010).
“Also recorded” adds a separate entry of the source.

Tests used:
[1] = tested on: long-chain DNA (pUC-II′; SEQ ID NO:7); assay: DNA alkylation of 5′-Texas Red-labeled long-chain DNA, analysed by polyacrylamide gel electrophoresis; type: biochemical; conditions: 23° C., 8 hours, FIG. 1
Protocol: A 5′-Texas Red-labeled DNA fragment (450 bp) (pUC-II′, SEQ ID NO:7) was prepared by a PCR method using the 5′-Texas Red-labeled 19-base-pair primer (pUC18 forward, 328-345; SEQ ID NO:6) and the 21-base-pair primer (pUC18 reverse, 1861-1881; SEQ ID NO:5), puc18 being used as a template.
The reaction of compounds (3-1) and (4-1) prepared in the above-described Synthesis Examples with DNA was studied using the long-chain DNA (pUC-II′; SEQ ID NO:7). An alkylation reaction was performed at 23° C. for 8 hours. The sequence alkylated was analyzed by polyacrylic gel electrophoresis for sequence determination. […] This sequence specificity can be explained by a model in which each compound dimerizes in the DNA minor groove to recognize the base sequence.
Analysis by polyacrylamide gel electrophoresis was performed by the following process: A standard reaction solution containing the 5′-Texas Red-end-labeled DNA fragment (10 nM), DMF (10% (v/v)), and an agent having a concentration described above in a sodium phosphate buffer (5 mM, total volume: 10 μL, pH=7.0) was charged into a microfuge tube (Eppendorf) and left standing at 23° C. for 8 hours. After completion of the reaction, the reaction was quenched by the addition of calf thymus DNA (1 mM, 1 μL). The resulting mixture was shaken at 90° C. for 5 minutes. […]

[2] = Stability under acidic and alkaline conditions by HPLC; type: physicochemical
Protocol: Analysis of stability under acidic and alkaline conditions by HPLC was performed by the following process: A reaction solution containing compound (3-1) or (4-1) (100 μM) in a total volume of 10 μL of an aqueous solution of 5% HCl (pH=1, DMF:H2O=1:9) or an aqueous solution of 5% NaHCO3 (pH=9, DMF:H2O=1:9) was charged into a microfuge tube (Eppendorf) and left standing at 37° C. After 30 minutes, 2 hours, and 24 hours, analysis of compound (4-1) (16.8 min) and compound (3-1) (15.1 min) was performed by HPLC (linear gradient of acetonitrile 0-100% in 50 mM ammonium formate, 20 min, flow rate: 1.0 mL/min, 254 nm).
The Py-Im polyamide containing the indole linker was evaluated for stability by product analysis on HPLC using compounds (4-1) and (3-1). […] Compound (4-1) was converted into compound (3-1) (30 minutes: 50%, 2 hours: 78%) in the alkaline aqueous NaHCO3 solution (pH=9) (left standing at 37° C. for 24 hours). […] Compound (3-1) was readily converted into compound (4-1) (30 minutes: 96%) in the acidic aqueous HCl solution (pH=1) (37° C.).

[3] = tested on: long-chain DNA (pUC-II; SEQ ID NO:4, pUC-I′; SEQ ID NO:1); assay: DNA alkylation of 5′-Texas Red-labeled long-chain DNA, analysed by polyacrylamide gel electrophoresis; type: biochemical
Protocol: A 5′-Texas Red-labeled DNA fragment (450 bp) (pUC-I′, SEQ ID NO:1) was prepared by a PCR method using a 5′-Texas Red-labeled 20-base-pair primer, i.e., 5′-TexRed-[…]-3′ (pUC18 forward, 780-799; SEQ ID NO:2), and a 20-base-pair primer, i.e., 5′-[…]-3′ (pUC18 reverse, 1459-1478; SEQ ID NO:3), puc18 being used as a template. The DNA fragment was in a double-stranded state including a complementary strand (the following fragments were in the same state).
A 5′-Texas Red-labeled DNA fragment (450 bp) (pUC-II, SEQ ID NO:4) was prepared by a PCR method using a 5′-Texas Red-labeled 21-base-pair primer, i.e., 5′-TexRed-[…]-3′ (pUC18 reverse, 1861-1881; SEQ ID NO:5), and a 19-base-pair primer, i.e., 5-TGTAAAACGACGGCCAGTG-3′ (pUC18 forward, 328-345; SEQ ID NO:6), puc18 being used as a template.
(§1) Analysis by polyacrylamide gel electrophoresis was performed by the following process: A standard reaction solution containing the 5′-Texas Red-end-labeled DNA fragment (10 nM), DMF (10% (v/v)), and an agent having a concentration described above in a sodium phosphate buffer (5 mM, total volume: 10 μL, pH=7.0) was charged into a microfuge tube (Eppendorf) and left standing at 23° C. for 8 hours. After completion of the reaction, the reaction was quenched by the addition of calf thymus DNA (1 mM, 1 μL). The resulting mixture was shaken at 90° C. for 5 minutes. The DNA obtained by centrifugation under reduced pressure was dissolved by the addition of 8 μl, of loading dye (fushin red solution in DMF), shaken at 94° C. for 20 minutes, and then immediately cooled to 0° C. A 2-μL aliquot was separated electrophoretically on a 6% denaturing polyacrylamide gel using a Hitachi 5500-S DNA sequencer. The following tests were conducted in a similar way.
The reaction of compounds (3-2) and (3-3) prepared in the above-described Synthesis Examples with DNA was studied using the long-chain DNA (pUC-II; SEQ ID NO:4, pUC-I′; SEQ ID NO:1). An alkylation reaction was performed for 8 hours. The sequence alkylated was analyzed by polyacrylic gel electrophoresis for sequence determination. […] However, the difference in sequence recognition ability was observed. […] From the stand point of the sequence recognition ability, the molecular design of compound (3-2) was excellent.

[4] = tested on: long-chain DNA (λ-F10906; SEQ ID NO:8); assay: as above; type: biochemical; conditions: λ-F10906, nanomolar concentrations, FIG. 4
Protocol: A 5′-Texas Red-labeled DNA fragment (537 bp) (λ-F10906; SEQ ID NO:8) was prepared by a PCR method using a 5′-Texas Red-labeled 23-base-pair primer, i.e., 5′-TexRed-[…]-3′ (λ-DNA forward, 10960-10982; SEQ ID NO:9), and a 20-base-pair primer, i.e., 5′-[…]-3′ (λ-DNA reverse, 37007-37026; SEQ ID NO:10), λ-DNA being used as a template.
as §1
The reaction of compounds (3-2), (3-4), and (3-5) with DNA was studied using the long-chain DNA (λ-F10906; SEQ ID NO:8). The DNA-alkylating ability of each compound was evaluated.

[5] = tested on: human ER(+) breast cancer Br-10; assay: Antitumor activity against transplantable human breast cancer in nude mice; type: in vivo, BALB/cA-nu/nu mice; conditions: for T/C (%): treated group / control group ×100
Protocol: Antitumor activity of compound (4-2) against transplantable human ER(+) breast cancer Br-10 in nude mice was studied. Human ER(+) breast cancer Br-10 was subcutaneously transplanted in dorsal portions of 8-week-old BALB/cA-nu/nu mice through a trocar. Injection of 0.1 mL of EP Hormone Depot was intramuscularly administered in Br-10-transplant mice simultaneously with the transplantation. When the tumor volume reached about 100 mm^3, the mice were divided into 5 mice/group, and then the administration started.
Compound (4-2) was dissolved in ethanol, diluted with physiological saline, and subcutaneously injected in divided doses into 3 or 4 portions near the tumor once a day and 3 times every 3 days. The dose of compound (4-2) was 50 mg/kg (about 1 mg/mouse) in a volume of 0.05 mL/10 g. Physiological saline was subcutaneously injected in the control group. The length of the major axis (L) and the length of the minor axis (W) were measured every 3 days. The tumor volume was calculated with the following formula: Tumor volume (mm^3)=L(mm)×W^2(mm^2)/2 Comparison of the tumor volume between the compound (4-2) treated group and the control group was performed. […] Values shown in the table show relative estimation of each group when the tumor volume after 1 day in each group is defined as 1.0; and relative estimation calculated with (tumor volume of compound (4-2) treated group: T)/(tumor volume of control group: C)×100%.

[6] = 8 hours, pUC-II and pUC-I′, FIG. 2

For CC(=O)Nc1cn(C)c(C(=O)Nc2cn(C)c(C(=O)Nc3ccc4[nH]c(C(=O)N5CC6CC67C5=CC(=O)c5ccccc57)cc4c3)n2)n1 (centres unmarked) [compound (3-1), AcImIm-Indole-CBI], the “sequence-specific DNA alkylation” value [1] was “selectively alkylated adenine located at site 1 (5′-CGGCCA-3′) at nanomolar concentrations” and the “conversion into compound (4-1)” value ([2]; acidic aqueous HCl solution pH=1, 37° C., 30 minutes) was 96%.
With CC(=O)Nc1cn(C)c(C(=O)Nc2cn(C)c(C(=O)Nc3cc(C(=O)NCCCC(=O)Nc4cn(C)c(C(=O)Nc5ccc6[nH]c(C(=O)N7CC8CC89C7=CC(=O)c7ccccc79)cc6c5)n4)n(C)c3)n2)n1 (centres unmarked) [compound (3-3), AcImImPy-γ-Im-Indole-CBI] the “alkylated sites (sequence recognition ability)” value [3, 6] was “alkylation of site 4 (5′-AGCCA-3′), which was a match sequence, was observed; also recorded: single-base-pair mismatch sequences in site 1 (5′-AGCTA-3′), site 2 (5′-AGTCA-3′), site 5 (5′-TACCA-3′), and the like were also observed”, the “efficiency of DNA alkylation” value [3, 6] was “efficient DNA alkylation comparable with that of a known Py-Im polyamide having a vinyl linker was observed at nanomolar concentrations” and the “alkylation of guanine at match site 5′-TGCCG-3′” value ([3]; pUC-I′ (SEQ ID NO:1)) was “no alkylation of guanine was observed”.
For CC(=O)Nc1cn(C)c(C(=O)Nc2cn(C)c(C(=O)Nc3cc(C(=O)Nc4cc(C(=O)NCCCC(=O)Nc5cc(C(=O)Nc6cc(C(=O)Nc7ccc8[nH]c(C(=O)N9CC%10CC%10%11C9=CC(=O)c9ccccc9%11)cc8c7)n(C)c6)n(C)c5)n(C)c4)n(C)c3)n2)n1 (centres unmarked) [compound (3-4), AcImImPyPy-γ-PyPy-Indole-CBI], the “sequence-specific DNA alkylation, alkylated sites” value [4] was “Sequence-specific DNA alkylation (site 6: 5′-AATCCA-3′, site 7: 5′-TAACCA-3′)”.
With CC(=O)Nc1cn(C)c(C(=O)Nc2cc(C(=O)Nc3cc(C(=O)Nc4cc(C(=O)NCCCC(=O)Nc5cn(C)c(C(=O)Nc6cc(C(=O)Nc7ccc8[nH]c(C(=O)N9CC%10CC%10%11C9=CC(=O)c9ccccc9%11)cc8c7)n(C)c6)n5)n(C)c4)n(C)c3)n(C)c2)n1 (centres unmarked) [compound (3-5), AcImPyPyPy-γ-ImPy-Indole-CBI] the “sequence-specific DNA alkylation, alkylated sites” value [4] was “alkylation of an only mismatch sequence (site 1: 5′-TGCTCA-3′) was observed”.
With CC(=O)Nc1cn(C)c(C(=O)Nc2cn(C)c(C(=O)Nc3ccc4[nH]c(C(=O)N5CC(CCl)c6c5cc(O)c5ccccc65)cc4c3)n2)n1 (centres unmarked) [compound (4-1), AcImIm-Indole-seco-CBI] the “sequence-specific DNA alkylation” value [1] was “selectively alkylated adenine located at site 1 (5′-CGGCCA-3′) at nanomolar concentrations”, the “conversion into compound (3-1)” value ([2]; alkaline aqueous NaHCO3 solution pH=9, 37° C., 30 minutes) was 50% and the “conversion into compound (3-1)” value ([2]; alkaline aqueous NaHCO3 solution pH=9, 37° C., 2 hours) was 78%. For the same compound, the “formation of other hydrolysates” value ([2]; alkaline aqueous NaHCO3 solution pH=9, 37° C., 24 hours) was “No other hydrolysates were formed” and the “hydrolysis in acidic aqueous HCl solution” value ([2]; pH=1, 37° C., 24 hours) was “not hydrolyzed at all”.
With CC(=O)Nc1cn(C)c(C(=O)Nc2cn(C)c(C(=O)Nc3cc(C(=O)Nc4cc(C(=O)NCCCC(=O)Nc5cn(C)c(C(=O)Nc6cc(C(=O)Nc7ccc8[nH]c(C(=O)N9CC(CCl)c%10c9cc(O)c9ccccc%109)cc8c7)n(C)c6)n5)n(C)c4)n(C)c3)n2)n1 (centres unmarked) [compound (4-2), AcImImPyPy-γ-ImPy-Indole-seco-CBI] the “suppression of tumor growth” value ([5]; 50 mg/kg subcutaneous near the tumor, Br-10 in nude mice) was “suppression of tumor growth was observed after the first administration”, the “toxicity (weight loss of mice and the like)” value ([5]; 50 mg/kg subcutaneous, nude mice) was “toxicity that causes the weight loss of mice and the like was not observed” and the “relative tumor volume (after 1 day = 1.0)” value (“relative tumor volume” below) ([5]; after 1 day, 50 mg/kg subcutaneous near the tumor) was 1.0. The “T/C (%)” value ([5]; after 1 day) was 100%, the “relative tumor volume” value ([5]; after 4 days, 50 mg/kg subcutaneous near the tumor) was 1.1 and the “T/C (%)” value ([5]; after 4 days) was 78.6%. For the same compound, the “relative tumor volume” value ([5]; after 7 days, 50 mg/kg subcutaneous near the tumor) was 1.4, the “T/C (%)” value ([5]; after 7 days) was 82.4% and the “relative tumor volume” value ([5]; after 10 days, 50 mg/kg subcutaneous near the tumor) was 1.4. The “T/C (%)” value ([5]; after 10 days) was 66.7%, the “relative tumor volume” value ([5]; after 13 days, 50 mg/kg subcutaneous near the tumor) was 1.5 and the “T/C (%)” value ([5]; after 13 days) was 55.6%. The “relative tumor volume” value ([5]; after 16 days, 50 mg/kg subcutaneous near the tumor) was 2.0 and the “T/C (%)” value ([5]; after 16 days) was 64.5%.
